This is an account of results in article PMC11129182, “Development of Inhibitors, Probes, and PROTAC Provides a Complete Toolbox to Study PARK7 in the Living Cell” (Journal of Medicinal Chemistry, 2024).

In series [1] the test system is A549 cells. The series can be described thus: Cell viability assay (CellTiter-Blue). It counts as cell-based, human. The note with it: up to 5 μM, 72 h incubation. The protocol:
5 × 10^3 A549 cells were seeded into 96-well plates. The following day, the indicated final concentrations of JYQ-164 and JYQ-173 were added to the cells, and DMSO was used as a control. Inhibitors were renewed at 36 h, and cells were incubated with them an additional 36 h. Cell viability was measured using the CellTiter-Blue viability assay (Promega). Relative survival was normalized to the DMSO-treated sample and corrected for background signal. page 8: Figure S6. Cytotoxicity assay for JYQ-164 and JYQ-173 in A549 cells. ( A) PARK7 engagement of JYQ -164 and JYQ-173 in A459 cells. A549 cells were incubated with […] The reactions were stopped by addition of NuPAGE™ LDS sample buffer (4x) , followed by cell lysis, SDS-PAGE, fluorescence scanning, and immunoblott in g against PARK7 and β-actin. β-actin was used as a loading control. (B) A549 cells were incubated with indicated concentration of JYQ-164 (left panel) or JYQ-173 (right panel) for 72 h where the inhibitors were renewed after 36 h. Cell viability was measured using the CellTiter-Blue assay. Relative viability was normalized to untreated control and corrected for background signal. S8 (1 picture or pasted object on this page, not shown here)
Background: The colour change of resazurin is a common sign of viable cells or microbes.

The test system of series [2] is other proteins of A549 cells. Description: TMT-based global proteomic profiling in A549 cells, other proteins. It counts as cell-based, Homo sapiens. The note with it: A549 cells, 5 μM, 8 h. The protocol: A549 cells were seeded into 10 cm plates in 10 mL of media. […] Cells were lysed using a 5% SDS lysis buffer (100 mM Tris-HCl, pH 7.6) and were incubated at 95 °C for 4 min. Protein determination was performed using the Pierce BCA Gold protein assay. 100 μg of protein of each sample was reduced and alkylated, and excess iodoacetamide was quenched using 5 mM TCEP, 15 mM iodoacetamide, and 10 mM DTT, respectively. The protein was pelleted down using chloroform/methanol precipitation, and the resulting pellets were resolubilized in 40 mM HEPES pH 8.4. […] The Pierce BCA Gold protein assay was used to determine the peptide concentration. The peptides were labeled with TMTpro Label Reagents in a 1:4 ratio by mass (peptides/TMT reagents) for 1 h at RT. Five μL of 6% hydroxylamine was added to quench excess TMT reagent and incubated for 15 min at RT. Samples were pooled and lyophilized. The sample was subsequently fractionated on an Agilent 1200 series HPLC system (Agilent Technologies). 75 μg of the pooled sample was dissolved in solvent A (10 mM NH4HCO3, pH 8.4), injected onto, and eluted from an Agilent Eclipse Plus C18 2.1 × 150 mm 3.5 μm column (Agilent Technologies). The gradient was run from 2 to 90% solvent B (10 mM NH4HCO3, pH 8.4 final concentration, 20/80 water/acetonitrile v/v) in 30 min at a flow rate of 200 μL/min. Twelve fractions were made; every 30 s a fraction was collected in a vial, and the eluate of the next 30 s was collected in the next vial and so on until it loops back to the first vial (5 loops of 6 min each). Afterward, the samples were lyophilized.
2.2.07 (www.matrixscience.com) for protein identification. Mascot searches were with 10 ppm and 0.02 Da deviation for precursor and fragment mass, respectively. Enzyme specificity was set to trypsin. Up to two missed cleavages were allowed. Methionine oxidation and acetyl on protein N-terminus were set as variable modifications. Carbamidomethyl on Cys and TMTpro on Lys and N-terminus were set as fixed modifications. Protein FDR of 1% was set. Normalization was on total peptide amount. The values for each TMT channel were normalized to the average of the values for the DMSO samples for the same peptide, and these values were named FC. The log2 FC values of all replicates for the same master protein were averaged to give the “Average log2 FC”. A one-sample t test was performed against the null hypothesis of log2 FC = 0, and the resulting −log10p values were reported for each protein. The volcano plot was plotted using GraphPad Prism v.9.01.

As to `N#CN1CC[C@@H](C(=O)Nc2nc3c(s2)CN(C(=O)c2cc(-n4ccnn4)ccc2F)CC3)C1` [Compound 84, (R)-1-Cyano-N-(5-(2-fluoro-5-(1H-1,2,3-triazol-1-yl)benzoyl)-4,5,6,7-tetrahydrothiazolo[5,4-c]pyridin-2-yl)pyrrolidine-3-carboxamide], in series [1], the cytotoxicity entry is given as “did not show any cytotoxicity”. In addition, the “DOP1B protein level (total proteome profiling)” value in series [2] is reported as “downregulated”.
